#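 Compound exposure: 48 hours, 5 concentrations, 96-well plates. The concentration for 50% growth inhibition is given as GI50.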 Active and inactive are the calls of the source. Cut-off read from the data, not from the text of the source: active = GI50 up to about 1.1 µM and inactive = higher.
# Tests used:
# Experiment in all cases: DTP human tumour cell line panel, 48 h
# [1] = test system: 786-0
# [2] = test system: A498
# [3] = test system: A549
# [4] = test system: ACHN
# [5] = test system: BT-549
# [6] = test system: CAKI-1
# [7] = test system: CCRF-CEM
# [8] = test system: COLO 205
# [9] = test system: DU-145
# [10] = test system: EKVX
# [11] = test system: HCC 2998
# [12] = test system: HCT-116
# [13] = test system: HCT-15
# [14] = test system: HOP-62
# [15] = test system: HOP-92
# [16] = test system: HT-29
# [17] = test system: Hs-578T
# [18] = test system: IGROV-1
# [19] = test system: K562
# [20] = test system: KM12
# [21] = test system: LOX IMVI
# [22] = test system: MCF7
# [23] = test system: MDA-MB-231
# [24] = test system: MDA-MB-435
# [25] = test system: MDA-N
# [26] = test system: MOLT-4
# [27] = test system: Malme-3M
# [28] = test system: NCI-H226
# [29] = test system: NCI-H23
# [30] = test system: NCI-H460
# [31] = test system: NCI-H522
# [32] = test system: NCI/ADR-RES
# [33] = test system: OVCAR-4
# [34] = test system: OVCAR-5
# [35] = test system: OVCAR-8
# [36] = test system: PC-3
# [37] = test system: RPMI-8226
# [38] = test system: RXF 393
# [39] = test system: SF-268
# [40] = test system: SF-295
# [41] = test system: SF-539
# [42] = test system: SK-MEL-2
# [43] = test system: SK-MEL-5
# [44] = test system: SK-OV-3
# [45] = test system: SN12C
# [46] = test system: SNB-19
# [47] = test system: SNB-75
# [48] = test system: SR
# [49] = test system: SW-620
# [50] = test system: T47D
# [51] = test system: TK-10
# [52] = test system: U-251
# [53] = test system: UACC-257
# [54] = test system: UACC-62
# [55] = test system: UO-31
compound,measurement,setting,value
Nc1nc(=O)n(C2OC(CO)C(O)C2O)c2ncc(-c3ccc(-c4ccccc4)cc3)nc12 (stereo not given),GI50,[1],28.4 µM (inactive)
same,GI50,[2],> 100 µM (inactive)
same,GI50,[3],> 100 µM (inactive)
same,GI50,[4],> 100 µM (inactive)
same,GI50,[5],> 100 µM (inactive)
same,GI50,[6],> 100 µM (inactive)
same,GI50,[7],9.62 µM (inactive)
same,GI50,[8],> 100 µM (inactive)
same,GI50,[9],> 100 µM (inactive)
same,GI50,[10],94.8 µM (inactive)
same,GI50,[11],> 100 µM (inactive)
same,GI50,[12],> 100 µM (inactive)
same,GI50,[13],> 100 µM
same,GI50,[14],60 µM (inactive)
same,GI50,[15],> 100 µM (inactive)
same,GI50,[16],> 100 µM (inactive)
same,GI50,[17],> 100 µM (inactive)
same,GI50,[18],> 100 µM (inactive)
same,GI50,[19],> 100 µM (inactive)
same,GI50,[20],> 100 µM (inactive)
same,GI50,[21],83.2 µM (inactive)
same,GI50,[22],31.3 µM (inactive)
same,GI50,[23],21 µM (inactive)
same,GI50,[24],> 100 µM (inactive)
same,GI50,[25],> 100 µM (inactive)
same,GI50,[26],> 100 µM (inactive)
same,GI50,[27],> 100 µM (inactive)
same,GI50,[28],24.1 µM (inactive)
same,GI50,[29],> 100 µM (inactive)
same,GI50,[30],> 100 µM (inactive)
same,GI50,[31],> 100 µM (inactive)
same,GI50,[32],> 100 µM (inactive)
same,GI50,[33],> 100 µM (inactive)
same,GI50,[34],> 100 µM (inactive)
same,GI50,[35],> 100 µM (inactive)
same,GI50,[36],> 100 µM (inactive)
same,GI50,[37],> 100 µM (inactive)
same,GI50,[38],> 100 µM (inactive)
same,GI50,[39],> 100 µM (inactive)
same,GI50,[40],> 100 µM (inactive)
same,GI50,[41],> 100 µM (inactive)
same,GI50,[42],> 100 µM (inactive)
same,GI50,[43],> 100 µM (inactive)
same,GI50,[44],> 100 µM (inactive)
same,GI50,[45],> 100 µM (inactive)
same,GI50,[46],82.2 µM (inactive)
same,GI50,[47],28.4 µM (inactive)
same,GI50,[48],3.63 µM (inactive)
same,GI50,[49],> 100 µM (inactive)
same,GI50,[50],> 100 µM (inactive)
same,GI50,[51],> 100 µM (inactive)
same,GI50,[52],31.3 µM (inactive)
same,GI50,[53],> 100 µM (inactive)
same,GI50,[54],66.4 µM (inactive)
same,GI50,[55],> 100 µM (inactive)

# Source: ChEMBL document CHEMBL1201862, “PubChem BioAssay data set” (2004)
